Experimental data as given in paper PMC9729598 (Bioorganic Chemistry, 2022).

Tested on: SARS-CoV-2 (wuhan-HU-1 variant)
Assay type: cell-based

## C=C(C)[C@@H]1CC[C@]2(C(=O)O)CC[C@]3(C)[C@H](CC[C@@H]4[C@@]5(C)CC[C@H](O)C(C)(C)[C@@H]5CC[C@]43C)[C@@H]12 [BA, Betulinic acid]
  anti-SARS-CoV-2 activity: virtually inactive
